Test [1] addresses T1, human recombinant serotonin (5-Hydroxytryptamine) 5-HT2C receptor (Homo sapiens, UniProt P28335).
T1 construct: expressed in transfected cells; host or cells: Chinese hamster ovary (CHO-K1) cells
T1 sequence (P28335 33-458): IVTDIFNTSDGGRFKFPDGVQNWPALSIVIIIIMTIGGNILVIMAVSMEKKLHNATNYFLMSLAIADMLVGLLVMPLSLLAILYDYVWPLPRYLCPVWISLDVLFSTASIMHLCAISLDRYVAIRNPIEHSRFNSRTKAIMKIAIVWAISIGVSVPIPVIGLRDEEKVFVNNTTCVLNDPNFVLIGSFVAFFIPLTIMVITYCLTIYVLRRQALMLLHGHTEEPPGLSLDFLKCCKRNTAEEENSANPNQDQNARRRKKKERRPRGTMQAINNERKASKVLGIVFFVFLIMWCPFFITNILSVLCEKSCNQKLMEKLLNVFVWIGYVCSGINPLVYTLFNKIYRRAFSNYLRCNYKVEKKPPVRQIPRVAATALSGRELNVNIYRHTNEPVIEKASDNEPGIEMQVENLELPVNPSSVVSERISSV
As to the kind of experiment: Serotonin 5-HT2C radioligand binding ([3H]Mesulergine). To be noted: read-out: Inhibition of ligand binding, Serotonin 5-HT2C (percent inhibition of specific binding); for inhibition at 1 µM: compound at 1 μM; for inhibition at 0.1 µM: compound at 0.1 μM. The essentials:
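Compounds tested at 1 μM or lower (1% DMSO vehicle) for displacement of 1 nM [3H]Mesulergine over 60 min at 25° C. Specific binding determined by filtration counting, with 1 μM Mianserin defining non-specific binding; values are percent inhibition.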

Test [2] concerns the target T2, human recombinant adrenergic α1D receptor (Homo sapiens, UniProt P25100).
T2 construct: expressed in transfected cells; host or cells: human embryonic kidney (HEK-293) cells
T2 sequence (P25100 1-572): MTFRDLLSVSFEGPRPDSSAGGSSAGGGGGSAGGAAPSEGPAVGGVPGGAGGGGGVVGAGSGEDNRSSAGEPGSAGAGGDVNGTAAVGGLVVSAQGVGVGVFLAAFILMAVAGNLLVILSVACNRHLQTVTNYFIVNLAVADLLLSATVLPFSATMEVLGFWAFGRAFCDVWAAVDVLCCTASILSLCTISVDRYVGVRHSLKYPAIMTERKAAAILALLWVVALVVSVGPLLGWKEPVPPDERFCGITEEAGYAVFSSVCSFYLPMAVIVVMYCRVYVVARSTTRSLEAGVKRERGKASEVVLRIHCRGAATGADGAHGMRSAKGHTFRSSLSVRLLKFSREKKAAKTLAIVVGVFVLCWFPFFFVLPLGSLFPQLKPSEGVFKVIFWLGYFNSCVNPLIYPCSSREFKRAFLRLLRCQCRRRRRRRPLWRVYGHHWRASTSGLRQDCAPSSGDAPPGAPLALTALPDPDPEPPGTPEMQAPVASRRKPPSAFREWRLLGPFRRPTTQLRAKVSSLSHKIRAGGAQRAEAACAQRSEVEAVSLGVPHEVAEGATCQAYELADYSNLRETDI
Briefly: Adrenergic α1D radioligand binding ([3H]Prozosin). The settings on record: compound at 1 μM. As for the experimental part:
Compounds of invention were incubated with 0.6 nM [^3H]Prozosin for 60 min. at 25° C. Non-specific binding was estimated in the presence of 10 μM phentolamine. Receptor proteins were filtered and washed, the filters were then counted to determine [^3H]Prozosin specifically bound. Compounds were screened at 1 μM or lower, using 1% DMSO as vehicle. Biochemical assay results are presented as the percent inhibition of specific binding in Table 9.

For test [3], the target named is T3, human recombinant histamine H2 receptor (Homo sapiens, UniProt P25021).
T3 construct: expressed in transfected cells; host or cells: Chinese hamster ovary (CHO) K1 cells
As to the kind of experiment: Histamine H2 radioligand binding ([125I]Aminopotentidine). To be noted: read-out: Histamine Binding (1 μM) H2, percent inhibition of specific binding, 1 μM. In a few lines:
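Receptor source: human recombinant H2 in CHO-K1 cells, assayed in 50 mM phosphate pH 7.4. Competition against 0.1 nM [125I]aminopotentidine, 120 min, 25 °C; 3 μM tiotidine sets nonspecific binding, filter-bound counts give specific binding.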

Test [4] addresses T4, human recombinant serotonin (5-Hydroxytryptamine) 5-HT2A receptor (Homo sapiens, UniProt P28223).
T4 construct: expressed in transfected cells; host or cells: Chinese hamster ovary (CHO-K1) cells
As to the kind of experiment: Serotonin 5-HT2A radioligand binding ([3H]Ketanserin). The procedure:
Compounds of the invention were incubated with 0.5 nM [^3H]Ketanserin for 60 min. at 25° C. Non-specific binding was estimated in the presence of 1 μM Mianserin. Receptor proteins were filtered and washed, the filters were then counted to determine [^3H]Ketanserin specifically bound.

Test [5] deals with human recombinant serotonin (5-Hydroxytryptamine) 5-HT7 receptor (Homo sapiens, UniProt P34969). Briefly: Serotonin 5-HT7 radioligand binding ([3H]LSD). An excerpt:
Receptor proteins were filtered and washed, the filters were then counted to determine [^3H]LSD specifically bound.

[6] abbreviates: percent inhibition of specific binding, read-out: Inhibition of ligand binding, Adrenergic α1D.
Where [7] appears, read: read-out: Inhibition of ligand binding, Serotonin 5-HT2A (percent inhibition of specific binding), compound at 1 μM.
Where [8] appears, read: compound at 1 μM, read-out: Inhibition of ligand binding, Serotonin 5-HT7 (percent inhibition of specific binding).
[9] abbreviates: read-out: Inhibition of ligand binding, Serotonin 5-HT2A (percent inhibition of specific binding), compound at 0.1 μM.
Setting [10] is: read-out: Inhibition of ligand binding, Adrenergic α1D (percent inhibition of specific binding).

Structures are written as SMILES. Like-named read-outs stand apart in the source and are kept apart here.

Chain of human recombinant serotonin (5-Hydroxytryptamine) 5-HT7 receptor (P34969 whole entry): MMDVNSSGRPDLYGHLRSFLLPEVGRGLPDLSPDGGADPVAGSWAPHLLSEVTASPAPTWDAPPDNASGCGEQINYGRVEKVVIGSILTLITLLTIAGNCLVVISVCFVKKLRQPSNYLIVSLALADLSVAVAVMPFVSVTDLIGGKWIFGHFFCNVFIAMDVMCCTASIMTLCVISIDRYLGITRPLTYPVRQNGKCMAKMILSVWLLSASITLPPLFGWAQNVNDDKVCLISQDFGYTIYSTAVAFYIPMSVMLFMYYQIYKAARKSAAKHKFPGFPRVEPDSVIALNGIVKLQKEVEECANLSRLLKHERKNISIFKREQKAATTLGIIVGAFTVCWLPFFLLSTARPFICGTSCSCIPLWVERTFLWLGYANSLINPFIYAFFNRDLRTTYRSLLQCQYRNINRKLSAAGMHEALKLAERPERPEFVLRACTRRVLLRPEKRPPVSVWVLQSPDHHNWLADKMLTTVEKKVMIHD
T3 sequence (P25021 whole entry): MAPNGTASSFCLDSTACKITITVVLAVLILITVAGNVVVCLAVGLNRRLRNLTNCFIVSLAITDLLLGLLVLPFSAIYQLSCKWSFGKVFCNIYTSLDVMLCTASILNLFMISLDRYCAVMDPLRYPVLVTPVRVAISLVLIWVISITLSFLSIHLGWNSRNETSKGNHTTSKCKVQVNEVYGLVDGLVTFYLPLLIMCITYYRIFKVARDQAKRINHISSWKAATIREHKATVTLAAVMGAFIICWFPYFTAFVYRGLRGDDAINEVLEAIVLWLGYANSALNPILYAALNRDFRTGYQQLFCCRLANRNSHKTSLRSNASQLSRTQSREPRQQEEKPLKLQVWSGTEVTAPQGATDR
T4 sequence (P28223 whole entry): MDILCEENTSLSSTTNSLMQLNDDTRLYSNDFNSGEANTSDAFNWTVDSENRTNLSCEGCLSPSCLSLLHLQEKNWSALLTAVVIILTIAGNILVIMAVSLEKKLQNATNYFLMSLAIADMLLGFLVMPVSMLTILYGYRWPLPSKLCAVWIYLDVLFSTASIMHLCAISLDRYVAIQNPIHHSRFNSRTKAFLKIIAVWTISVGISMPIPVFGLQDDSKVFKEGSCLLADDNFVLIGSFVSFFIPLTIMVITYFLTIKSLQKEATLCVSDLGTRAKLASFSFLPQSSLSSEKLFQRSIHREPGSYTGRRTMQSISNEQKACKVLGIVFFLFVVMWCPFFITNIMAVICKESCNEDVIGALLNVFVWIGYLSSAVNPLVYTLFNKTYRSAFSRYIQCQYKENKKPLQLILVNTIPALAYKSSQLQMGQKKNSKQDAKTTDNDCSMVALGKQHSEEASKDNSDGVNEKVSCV

For `C=C(Cn1c2c(c3cc(C)ccc31)CN(C)CC2)c1ccc(F)cc1` [Compound 132, 5-(2-(4-fluorophenyl)allyl)-2,3,4,5-tetrahydro-2,8-dimethyl-1H-pyrido[4,3-b]indole], the inhibition (usually the change of the read-out against control, counted positive when it falls) at 1 µM in test [1] stood at 96%; in test [2] (setting [6]) it was 93%; in test [3], 96%; in test [4] (setting [7]), 100%; in test [5] (setting [8]) it was 103%.

As to `CC(=Cn1c2c(c3cc(Cl)ccc31)CN(C)CC2)c1ccc(Cl)cc1Cl` (stereo in doubt) [Compound 111, (Z)-8-chloro-5-(2-(2,4-dichlorophenyl)prop-1-enyl)-2,3,4,5-tetrahydro-2-methyl-1H-pyrido[4,3-b]indole], the inhibition at 0.1 µM worked out at 95% in test [1] and 86% in test [4] (setting [9]). For the same molecule, the figures for the inhibition at 1 µM in test [1], in test [3] and in test [4] (setting [7]) were 100%, 91% and 99%, respectively. Besides, the “Inhibition of ligand binding, Adrenergic α1D” value in test [2] (percent inhibition of specific binding, 1 µM) was determined as 47%. Further, in test [5] (compound at 1 μM, 1 µM), the “Inhibition of ligand binding, Serotonin 5-HT7 (percent inhibition of specific binding)” value is on record as 102%.

For the molecule `CCOC(=O)/C=C(/Cn1c2c(c3cc(C)ccc31)CN(C)CC2)c1ccc(F)cc1` [Compound No. 350, (E)-ethyl 4-(2,8-dimethyl-3,4-dihydro-1H-pyrido[4,3-b]indol-5(2H)-yl)-3-(4-fluorophenyl)but-2-enoate], the inhibition at 1 µM stood at 87% in test [1]; 85% in test [2] (setting [10]); 93% in test [3]; 100% in test [4] (setting [7]); 71% in test [5] (setting [8]).

Take `C/C(=C\n1c2c(c3cc(Cl)ccc31)CN(C)CC2)c1ccc(F)cc1` [Compound 83, (E)-8-chloro-5-(2-(4-fluorophenyl)prop-1-enyl)-2,3,4,5-tetrahydro-2-methyl-1H-pyrido[4,3-b]indole]: the inhibition at 0.1 µM in test [1] is 100%; in test [4] (compound at 0.1 μM, read-out: Inhibition of ligand binding, Serotonin 5-HT2A (percent inhibition of specific binding)), 98%; in test [5] (compound at 0.1 μM, read-out: Inhibition of ligand binding, Serotonin 5-HT7 (percent inhibition of specific binding)), 82%. For the same molecule, the inhibition at 1 µM in test [1] was 98%; in test [2] (setting [6]) it was 96%; in test [3], 99%; in test [4] (compound at 1 μM, read-out: Inhibition of ligand binding, Serotonin 5-HT2A (percent inhibition of specific binding)), 99%; in test [5] (setting [8]), 93%. In addition, the “Inhibition of ligand binding, Serotonin 5-HT7 (percent inhibition of specific binding)” value in test [5] (compound at 0.1 μM, 0.1 µM) stood at 96%.

Regarding `CCN1CCc2c(c3ccccc3n2CC(O)c2ccc(C)cc2)C1` (racemic) [Compound 44, racemic-2-(2-ethyl-1,2,3,4-tetrahydropyrido[4,3-b]indol-5-yl)-1-p-tolylethanol], the inhibition at 1 µM in test [1] was 36%; in test [2] (setting [6]) it was 35%; in test [3], 26%; in test [4] (setting [7]), 80%; in test [5] (setting [8]) it was 42%.

Take `CCOC(=O)/C=C(/Cn1c2c(c3cc(C)ccc31)CN(C)CC2)c1ccccc1` [Compound No. 347, (E)-ethyl 4-(2,8-dimethyl-3,4-dihydro-1H-pyrido[4,3-b]indol-5(2H)-yl)-3-phenylbut-2-enoate]: the inhibition at 1 µM in test [1] stood at 104%; in test [2] (setting [6]), 90%; in test [3], 87%; in test [4] (setting [7]), 100%; in test [5] (setting [8]), 101%.

Regarding `C=C(Cn1c2c(c3cc(Cl)ccc31)CN(C)CC2)c1ccc(F)cc1` [Compound 128, 8-chloro-5-(2-(4-fluorophenyl)allyl)-2,3,4,5-tetrahydro-2-methyl-1H-pyrido[4,3-b]indole], the inhibition at 1 µM in test [1] was determined as 100%; in test [2] (setting [6]), 91%; in test [3] it was 100%; in test [4] (setting [7]), 100%; in test [5] (setting [8]), 98%. For the same molecule, in test [4] (setting [9]), the inhibition at 0.1 µM turned out to be 99%.

As to `Cc1ccc2c(c1)c1c(n2CC(O)c2ccncc2)CCN(C)C1` (stereo not shown) [Compound 180, 2-(2,8-dimethyl-3,4-dihydro-1H-pyrido[4,3-b]indol-5(2H)-yl)-1-(pyridin-4-yl)ethanol], the inhibition at 1 µM in test [1] turned out to be 74%; in test [2] (setting [6]) it was 60%; in test [3], 24%; in test [4] (setting [7]), 86%; in test [5] (setting [8]) it was 77%.

Regarding `C/C(=C\n1c2c(c3cc(C)ccc31)CN(C)CC2)c1ccc(F)cc1` [Compound 87, (E)-5-(2-(4-fluorophenyl)prop-1-enyl)-2,3,4,5-tetrahydro-2,8-dimethyl-1H-pyrido[4,3-b]indole], the inhibition at 0.1 µM was found to be 101% in test [1] and 100% in test [4] (setting [9]). Further, the inhibition at 1 µM is 100% in test [1]; 99% in test [2] (setting [6]); 100% in test [3]; 99% in test [4] (setting [7]); 100% in test [5] (setting [8]).

As to `CCC/C=C(/Cn1c2c(c3cc(Cl)ccc31)CN(C)CC2)c1ccc(F)cc1` [Compound No. 351, (E)-8-chloro-5-(2-(4-fluorophenyl)hex-2-enyl)-2-methyl-2,3,4,5-tetrahydro-1H-pyrido[4,3-b]indole], the inhibition at 1 µM in test [1] was 101%; in test [2] (setting [10]), 45%; in test [3], 100%; in test [4] (setting [7]), 100%; in test [5] (setting [8]), 90%.

As for `CCN1CCc2c(c3cc(C)ccc3n2CC(O)c2ccc(C)cc2)C1` (racemic) [Compound 51, racemic-2-(2-ethyl-1,2,3,4-tetrahydro-8-methylpyrido[4,3-b]indol-5-yl)-1-p-tolylethanol], the inhibition at 0.1 µM in test [1] came to 43%. The inhibition at 1 µM in test [1] was 84%; in test [2] (setting [6]), 89%; in test [3] it was 59%; in test [4] (setting [7]), 102%; in test [5] (setting [8]), 91%.

For the molecule `Cc1ccc2c(c1)c1c(n2C/C(=C/C(=O)O)c2ccc(F)cc2)CCN(C)C1` [Compound No. 352, (E)-4-(2,8-dimethyl-3,4-dihydro-1H-pyrido[4,3-b]indol-5(2H)-yl)-3-(4-fluorophenyl)but-2-enoic acid], the inhibition at 1 µM in test [1] worked out at 93%; in test [2] (setting [10]), 11%; in test [3] it was 15%; in test [4] (setting [7]) it was 84%; in test [5] (setting [8]), 52%.

(Values after patent US8906925B2, “Pyrido[4,3-B]indoles containing rigid moieties” (Medivation Technologies, Inc., priority 2008, dated 2014).)
